# System: left ventricular pressure-loaded model mice (TAC mice)
# Assay: Echocardiography in transverse aortic constriction (TAC) left ventricular pressure-loaded model mice
# Format: in vivo, C57BL/6 mice
# Experimental: Ten-week-old male C57BL/6 mice (about 25 g) were treated with transverse aortic constriction (TAC) to produce left ventricular pressure-loaded model mice (TAC mice). At 2 weeks after TAC (hypertrophic phase), an osmotic mini-pump (Alzet2006) was implanted subcutaneously, and continuous subcutaneous administration of Compound 011 or a vehicle (a solution obtained by mixing dimethyl sulfoxide and polyethylene glycol 300 in a weight ratio of 1:1) was started at a dose of 5 mg/kg/day. The left ventricular wall thickness (IVS), left ventricular end-diastolic diameter (LVDd), left ventricular fractional shortening (LVFS), and left ventricular ejection fraction (LVEF) were observed and evaluated by echocardiography every two weeks after the start of administration (Compound 011 group: 11 animals; vehicle group: 9 animals). In advance, Compound 011 was administered to non-TAC-treated mice at 5 mg/kg/day with an osmotic mini-pump (Alzet2006) in the same manner, and the blood level (tail vein blood sample) was measured at 2, 4, and 6 weeks after administration and the body blood pressure was measured at 2 weeks after administration to thus confirm that the dose of 5 mg/kg/day could be used for TAC mice.
# [1] = 8 weeks after TAC (6 weeks after start of administration), 5 mg/kg/day continuous subcutaneous by osmotic mini-pump, p<0.05 vs. vehicle
# [2] = 8 weeks after TAC, 5 mg/kg/day continuous subcutaneous
structure (smiles),measurement,setting,value
"O=C(O)c1cnc(N2CCN(c3noc4cccc(C(F)(F)F)c34)CC2)c(Cl)c1 [Compound 011, 5-Chloro-6-(4-(4-(trifluoromethyl)benzo[d]isoxazol-3-yl)piperazin-1-yl)nicotinic acid]",progressive deterioration of LVFS and LVEF,"5 mg/kg/day continuous subcutaneous, vs. vehicle group",significantly suppressed
same,LVEF (left ventricular ejection fraction),[1],80.2±2.7%
same,left ventricular fractional shortening (LVFS) at 8 weeks after TAC,[1],48.8±2.6%
same,"interventricular septum (IVS), difference vs. vehicle group",[2],no significant difference
same,"left ventricular end-diastolic diameter (LVDd), difference vs. vehicle group",[2],no significant difference

# Source: patent publication US20250073229A1, “PHARMACEUTICAL COMPOSITION FOR PREVENTING AND/OR TREATING HEART FAILURE” (OSAKA UNIVERSITY, priority 2022, published 2025)
